# Test results taken from patent publication US8980899B2, “Methods of inhibiting Ire1” (The Regents of the University of California, priority 2009, dated 2015).
# pKi: −log10 of the molar value.
# How the values were obtained:
# hIre1 = hIre1 (Homo sapiens, UniProt O75460); experiment: Titrations of Ire1 inhibitors to measure Ki using 1 μM hIre1; assay type: biochemical; conditions: 1 μM hIre1, 5′-32p-HP21, 30° C.
# Description: Recombinant human Ire1-alpha (1 μM f/c) was mixed with reaction buffer, inhibitor solution in DMSO, and ^32P-labeled RNA substrate having sequence 5′-UGCACCUCUGCAGCAGGUGCA (SEQ ID NO:1). Reactions were conducted at 30° C. and initiated by adding the RNA to reaction pre-mix containing all the components minus the RNA. The final reaction contained: 20 mM HEPES pH 7, 70 mM NaCl, 2 mM MgCl2, 5% glycerol, 4 mM DTT, 10% DMSO, 1 μM Ire1 and <1 nM 32P-labeled RNA. (The reaction mixture may be modified by using different components or concentrations, different RNA substrate, or different Ire1 protein construct.)
# At time intervals (0 seconds, ˜10 seconds, ˜30 seconds, and ˜3 minutes), 1 μl aliquots of reaction mixture were taken and quenched in 10 M Urea, 0.1% SDS. Samples were analyzed by denaturing polyacrylamide gel electrophoresis and quantified using Typhoon phosphorImager.
# Inhibition was measured by the extent of RNA cleavage slowdown in the presence of inhibitor (0.3-100 μM) compared to reaction containing no inhibitors.
# [1] = target: Recombinant human Ire1-alpha (Homo sapiens, UniProt O75460); experiment: In vitro inhibition assay, cleavage of 32P-stem-loop RNA by human Ire1; assay type: biochemical; design: Ire1 activity with human Ire1 alpha: unit not given here; conditions: for Ire1 activity: in vitro cleavage of 32P-stem-loop RNA by human Ire1, AD series, Control (no inhibitor) 8.8310e−3; for Ire1 activity with human Ire1 alpha: RNA cleavage, 1 μM Ire1, 32P-labeled RNA, 30° C., Control (no inhibitor) 0.085
# Description: Recombinant human […]) was mixed with reaction buffer, inhibitor solution in DMSO, and ^32P-labeled RNA substrate having sequence 5'-[…] NO:1). Reactions were conducted at 30° C. and initiated by adding the RNA to reaction pre-mix containing all the components minus the RNA. […] (The reaction mixture may be modified by using different components or concentrations, different RNA substrate, or different Ire1 protein construct.) At time intervals (0 seconds, 10 seconds, 30 seconds, and 3 minutes), 1 μl aliquots of reaction mixture were taken and quenched in 10 M Urea, 0.1% SDS. Samples were analyzed by denaturing polyacrylamide gel electrophoresis and quantified using Typhoon phosphorImager. […] Reactions with Irestatin and exemplary compounds were conducted analogously. Irestatin was a gift obtained from the SPECS screen available as 5 mM solution in DMSO at UCSF small molecule discovery center.
# yIre1 = target: T1, yIre1 (Saccharomyces cerevisiae, UniProt P32361); experiment: RNase cleavage assay (yIre1 activation); assay type: biochemical, yeast; conditions: yIre1 RNA cleavage, 30° C., 2 mM ADP; Control (no inhibitor) 0.000504
# T1 sequence (P32361 19-1115): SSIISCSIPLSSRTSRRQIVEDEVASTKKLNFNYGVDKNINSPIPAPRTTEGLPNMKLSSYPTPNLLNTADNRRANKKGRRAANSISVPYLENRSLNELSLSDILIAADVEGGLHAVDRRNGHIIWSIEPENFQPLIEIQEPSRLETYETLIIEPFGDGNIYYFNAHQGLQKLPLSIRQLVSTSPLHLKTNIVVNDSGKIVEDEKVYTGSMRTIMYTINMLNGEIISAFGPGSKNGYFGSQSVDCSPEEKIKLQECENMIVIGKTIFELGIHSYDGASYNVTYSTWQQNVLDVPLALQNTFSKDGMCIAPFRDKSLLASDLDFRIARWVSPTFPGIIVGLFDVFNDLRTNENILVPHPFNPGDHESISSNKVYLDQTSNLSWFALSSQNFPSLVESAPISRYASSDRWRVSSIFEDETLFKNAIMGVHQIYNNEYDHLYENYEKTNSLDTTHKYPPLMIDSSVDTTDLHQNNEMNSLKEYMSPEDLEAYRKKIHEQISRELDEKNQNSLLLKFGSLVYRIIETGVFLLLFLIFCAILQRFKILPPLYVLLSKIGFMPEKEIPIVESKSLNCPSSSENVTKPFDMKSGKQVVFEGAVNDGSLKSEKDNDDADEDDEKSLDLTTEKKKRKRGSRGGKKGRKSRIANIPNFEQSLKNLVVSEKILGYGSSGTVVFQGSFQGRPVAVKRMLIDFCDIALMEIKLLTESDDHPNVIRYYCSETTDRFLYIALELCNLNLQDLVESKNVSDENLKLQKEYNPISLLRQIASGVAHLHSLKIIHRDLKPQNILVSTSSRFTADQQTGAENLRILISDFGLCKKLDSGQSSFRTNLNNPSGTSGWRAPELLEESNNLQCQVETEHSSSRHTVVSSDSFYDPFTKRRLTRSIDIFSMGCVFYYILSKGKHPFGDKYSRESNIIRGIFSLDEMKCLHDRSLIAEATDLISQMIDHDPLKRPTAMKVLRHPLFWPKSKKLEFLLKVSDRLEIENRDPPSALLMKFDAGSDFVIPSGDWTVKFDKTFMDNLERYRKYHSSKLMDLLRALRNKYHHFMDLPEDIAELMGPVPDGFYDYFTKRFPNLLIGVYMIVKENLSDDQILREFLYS
# Description: RNA cleavage reactions were conducted at 30° C. in buffer containing 20 mM HEPES (pH 7.5), 70 mM NaCl, 2 mM ADP (pH 7.0), 2 mM Mg(OAc)2, 5 mM DTT, 5% glycerol, less than 1 nM ^32p-labeled RNA substrate, and 3 nM-[…] Ire1. Reaction solutions and buffers were designed using Biochem Lab Solutions 3.5. Reactions were prepared such that 1 μl of RNA was added to 9 μl of pre-warmed reaction mixture containing all components except RNA. Typically, 3-10 minute time courses were collected starting from 5 seconds for the first time point. At time intervals, 1 μl of solution was withdrawn from each reaction and mixed with 6 μl stop solution containing 10 M urea, 0.1% SDS, 0.1 mM EDTA, 0.05% xylene cyanol, and 0.05% bromophenol blue. The samples were separated by a denaturing 10% PAGE and exposed on a phosphor storage screen. The screens were scanned on a Storm or a Typhoon instrument and quantified using ImageQuant 5.0 or GelQuant.NET 1.4 programs. The data were plotted and fit in SigmaPlot 6.0.
# yeast Ire1 = target: T2, yeast Ire1 (Saccharomyces cerevisiae, UniProt P32361); experiment: In vitro inhibition assay, cleavage of 32P-labeled RNA by yeast Ire1; assay type: biochemical; conditions: for Ire1 activity with yeast Ire1: RNA cleavage, 32P-labeled RNA, 30° C., Control (no inhibitor) 0.1149
# T2 sequence (P32361 19-1115): T1 sequence (P32361 19-1115)
# Sequence of Recombinant human Ire1-alpha (O75460 19-977): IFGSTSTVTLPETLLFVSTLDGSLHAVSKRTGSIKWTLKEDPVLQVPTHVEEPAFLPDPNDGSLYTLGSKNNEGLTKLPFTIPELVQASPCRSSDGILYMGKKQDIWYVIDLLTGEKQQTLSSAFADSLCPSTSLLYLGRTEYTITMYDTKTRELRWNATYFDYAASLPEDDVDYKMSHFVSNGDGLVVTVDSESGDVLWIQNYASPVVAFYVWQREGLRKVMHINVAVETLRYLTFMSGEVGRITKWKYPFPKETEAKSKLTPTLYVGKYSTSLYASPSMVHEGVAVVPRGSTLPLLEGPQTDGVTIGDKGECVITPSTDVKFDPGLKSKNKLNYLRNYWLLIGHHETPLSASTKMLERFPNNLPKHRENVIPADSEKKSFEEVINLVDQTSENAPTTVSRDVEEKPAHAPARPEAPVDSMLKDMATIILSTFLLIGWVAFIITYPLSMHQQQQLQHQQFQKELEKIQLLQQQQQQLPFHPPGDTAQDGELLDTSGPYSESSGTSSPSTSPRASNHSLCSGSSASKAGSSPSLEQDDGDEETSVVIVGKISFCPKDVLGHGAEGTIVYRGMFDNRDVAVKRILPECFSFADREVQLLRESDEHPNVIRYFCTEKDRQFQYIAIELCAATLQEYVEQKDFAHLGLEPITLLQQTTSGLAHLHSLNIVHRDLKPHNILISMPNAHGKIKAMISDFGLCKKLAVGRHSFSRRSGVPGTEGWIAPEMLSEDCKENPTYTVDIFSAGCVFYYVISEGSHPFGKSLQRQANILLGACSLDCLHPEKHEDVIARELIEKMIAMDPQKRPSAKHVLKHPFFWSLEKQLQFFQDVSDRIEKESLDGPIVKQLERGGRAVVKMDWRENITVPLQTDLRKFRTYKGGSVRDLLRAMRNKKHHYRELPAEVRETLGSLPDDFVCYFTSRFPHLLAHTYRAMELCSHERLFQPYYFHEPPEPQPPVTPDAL
# Sequence of hIre1 (O75460 19-977): as above
SMILES,Ire1 activity [1],Ire1 activity with yeast Ire1 (yeast Ire1),Ire1 activity with human Ire1 alpha [1],other results
Nc1ncnc2c1c(-c1ccc(NC(=O)Nc3cccc(C(F)(F)F)c3)cc1)nn2CCCO [AD64],6.9280e−4,,,pKi (hIre1): ~6.00
Nc1ncnc2c1c(-c1ccc(NC(=O)c3cccc(C(F)(F)F)c3)cc1)nn2CCCO [AD65],,,,pKi (hIre1): ~4.52
"CC(C)n1nc(Cc2cccc(NC(=O)Nc3cccc(C(F)(F)F)c3)c2)c2c(N)ncnc21 [AD36, 1-(3-((4-amino-1-isopropyl-1H-pyrazolo[3,4-d]pyrimidin-3-yl)methyl)phenyl)-3-(3-(trifluoromethyl)phenyl)urea]",,1.05E−03,0.09575,Ire1 activity (yIre1): 0.000322
Nc1ncnc2c1c(-c1ccc(NC(=O)Nc3cccc(C(F)(F)F)c3)cc1)nn2[C@H]1CCN(C(=O)Nc2cccc(C(F)(F)F)c2)C1 [AD71c],1.2650e−3,,,
"Nc1ncnc2c1c(-c1ccc(NC(=O)Nc3cccc(C(F)(F)F)c3)cc1)nn2C1CCCC1 [AD60, 1-(4-(4-amino-1-cyclopentyl-1H-pyrazolo[3,4-d]pyrimidin-3-yl)phenyl)-3-(3-(trifluoromethyl)phenyl)urea]",4.0180e−3,2.42E−03,0.02258,Ire1 activity (yIre1): 4.04E−05; inhibition of yIre1 (in words) (yeast Ire1): can inhibit; inhibition of hIre1 (in words) [1]: can inhibit
"Nc1ncnc2c1c(-c1ccc(NC(=O)c3cccc(C(F)(F)F)c3)cc1)nn2[C@@H]1CCNC1 [AD72, N-(4-(4-amino-1-((R)-pyrrolidin-3-yl)-1H-pyrazolo[3,4-d]pyrimidin-3-yl)phenyl)-3-(trifluoromethyl)benzamide]",6.4950e−3,,,
"Nc1ncnc2c1c(-c1ccc(NC(=O)c3cccc(C(F)(F)F)c3)cc1)nn2[C@H]1CCNC1 [AD70, N-(4-(4-amino-1-((S)-pyrrolidin-3-yl)-1H-pyrazolo[3,4-d]pyrimidin-3-yl)phenyl)-3-(trifluoromethyl)benzamide]",9.0580e−3,,,
"Nc1ncnc2c1c(Cc1cccc(NC(=O)c3cccc(C(F)(F)F)c3)c1)nn2Cc1ccccc1 [BB5, N-(3-((4-amino-1-benzyl-1H-pyrazolo[3,4-d]pyrimidin-3-yl)methyl)phenyl)-3-(trifluoromethyl)benzamide]",,5.00E−03,0.1247,
"Nc1ncnc2c1c(-c1ccc(NC(=O)c3cccc(C(F)(F)F)c3)cc1)nn2[C@@H]1CCOC1 [AD68, N-(4-(4-amino-1-((R)-tetrahydrofuran-3-yl)-1H-pyrazolo[3,4-d]pyrimidin-3-yl)phenyl)-3-(trifluoromethyl)benzamide]",8.4550e−3,,,
"Nc1ncnc2c1c(Cc1cccc(NC(=O)Nc3cccc(C(F)(F)F)c3)c1)nn2Cc1ccccc1 [BB6, 1-(3-((4-amino-1-benzyl-1H-pyrazolo[3,4-d]pyrimidin-3-yl)methyl)phenyl)-3-(3-(trifluoromethyl)phenyl)urea]",,3.00E−03,0.1506,
"CC(C)n1nc(-c2ccc(NC(=O)Nc3cccc(C(F)(F)F)c3)cc2)c2c(N)ncnc21 [AD57, 1-(4-(4-amino-1-isopropyl-1H-pyrazolo[3,4-d]pyrimidin-3-yl)phenyl)-3-(3-(trifluoromethyl)phenyl)urea]",,3.26E−03,0.05508,
"Nc1ncnc2c1c(-c1ccc(NC(=O)Nc3cccc(C(F)(F)F)c3)cc1)nn2[C@@H]1CCOC1 [AD69, 1-(4-(4-amino-1-((R)-tetrahydrofuran-3-yl)-1H-pyrazolo[3,4-d]pyrimidin-3-yl)phenyl)-3-(3-(trifluoromethyl)phenyl)urea]",0.0127,,,
"CNC(=O)c1cc(Oc2ccc(NC(=O)Nc3ccc(Cl)c(C(F)(F)F)c3)cc2)ccn1 [Sorafenib, reference compound]",,0.0683,0.03645,
"Nc1ncnc2c1c(-c1ccc(NC(=O)Nc3cccc(C(F)(F)F)c3)cc1)nn2[C@H]1CCOC1 [AD66, 1-(4-(4-amino-1-((S)-tetrahydrofuran-3-yl)-1H-pyrazolo[3,4-d]pyrimidin-3-yl)phenyl)-3-(3-(trifluoromethyl)phenyl)urea]",0.0107,,,
"Nc1ncnc2c1c(-c1ccc(NC(=O)c3cccc(C(F)(F)F)c3)cc1)nn2[C@H]1CCOC1 [AD67, N-(4-(4-amino-1-((S)-tetrahydrofuran-3-yl)-1H-pyrazolo[3,4-d]pyrimidin-3-yl)phenyl)-3-(trifluoromethyl)benzamide]",0.0100,,,
